Assay results: ChEMBL document CHEMBL4270512, “Harnessing pyrrolidine iminosugars into dimeric structures for the rapid discovery of divalent glycosidase inhibitors” (Eur J Med Chem, 2018)
Calls of active or inactive are those of the source. No cut-off for these calls is given here.

Columns and labels:
[1] = Uncompetitive inhibition of bovine kidney alpha-fucosidase using p-nitrophenyl glycopyranoside as substrate preincubated for 5 mins followed by substrate addition and measured after 20 mins by Lineweaver-Burk plot analysis; parameters: species or system Bos taurus
Canavalia ensiformis = test: Inhibition of jack beans beta-N-acetylglucosaminidase at 0.1 mM using p-nitrophenyl glycopyranoside as substrate preincubated for 5 mins followed by substrate addition and measured after 20 mins by visible absorption spectroscopic analysis
Cornu aspersum = test: Inhibition of snail beta-mannosidase at 0.1 mM using p-nitrophenyl glycopyranoside as substrate preincubated for 5 mins followed by substrate addition and measured after 20 mins by visible absorption spectroscopic analysis
[2] = Competitive inhibition of bovine kidney alpha-fucosidase using p-nitrophenyl glycopyranoside as substrate preincubated for 5 mins followed by substrate addition and measured after 20 mins by Lineweaver-Burk plot analysis; parameters: species or system Bos taurus
[3] = molecular target: Alpha-galactosidase (Coffea arabica) (UniProt Q42656); test: Inhibition of coffee beans alpha-galactosidase at 0.1 mM using p-nitrophenyl glycopyranoside as substrate preincubated for 5 mins followed by substrate addition and measured after 20 mins by visible absorption spectroscopic analysis
[4] = molecular target: T1, Alpha-mannosidase (Canavalia ensiformis) (UniProt C0HJB3); test: Inhibition of jack beans alpha-mannosidase at 0.1 mM using p-nitrophenyl glycopyranoside as substrate preincubated for 5 mins followed by substrate addition and measured after 20 mins by visible absorption spectroscopic analysis
T1 sequence (whole entry): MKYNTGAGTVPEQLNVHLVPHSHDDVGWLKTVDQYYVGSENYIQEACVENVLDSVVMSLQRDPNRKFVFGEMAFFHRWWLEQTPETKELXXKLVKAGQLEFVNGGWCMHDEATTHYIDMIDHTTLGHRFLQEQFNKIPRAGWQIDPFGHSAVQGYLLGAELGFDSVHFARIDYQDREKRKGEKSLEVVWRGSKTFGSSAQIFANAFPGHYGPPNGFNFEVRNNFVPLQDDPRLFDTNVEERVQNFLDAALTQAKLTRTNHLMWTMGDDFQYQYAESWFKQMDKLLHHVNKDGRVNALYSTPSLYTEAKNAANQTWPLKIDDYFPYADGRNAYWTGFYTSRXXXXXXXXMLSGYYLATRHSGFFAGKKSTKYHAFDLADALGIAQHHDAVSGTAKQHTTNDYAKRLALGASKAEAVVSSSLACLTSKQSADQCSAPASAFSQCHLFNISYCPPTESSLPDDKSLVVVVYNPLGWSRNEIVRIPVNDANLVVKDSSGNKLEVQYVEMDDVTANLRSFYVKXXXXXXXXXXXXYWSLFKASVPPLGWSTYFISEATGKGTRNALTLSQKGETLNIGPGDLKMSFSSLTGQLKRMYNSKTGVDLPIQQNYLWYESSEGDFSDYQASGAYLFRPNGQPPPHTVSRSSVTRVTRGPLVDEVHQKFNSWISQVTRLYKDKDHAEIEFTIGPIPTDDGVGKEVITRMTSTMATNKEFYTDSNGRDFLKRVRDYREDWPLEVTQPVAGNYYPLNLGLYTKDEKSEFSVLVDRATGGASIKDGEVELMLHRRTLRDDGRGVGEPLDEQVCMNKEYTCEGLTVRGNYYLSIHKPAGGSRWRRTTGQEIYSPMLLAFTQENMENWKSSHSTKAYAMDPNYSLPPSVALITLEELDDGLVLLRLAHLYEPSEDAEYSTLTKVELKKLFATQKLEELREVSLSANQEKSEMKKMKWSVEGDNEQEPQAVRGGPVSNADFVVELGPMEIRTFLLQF

Aspergillus niger = test: Inhibition of Aspergillus niger amyloglucosidase at 0.1 mM using p-nitrophenyl glycopyranoside as substrate preincubated for 5 mins followed by substrate addition and measured after 20 mins by visible absorption spectroscopic analysis
Prunus dulcis = test: Inhibition of almond beta-glucosidase at 0.1 mM using p-nitrophenyl glycopyranoside as substrate preincubated for 5 mins followed by substrate addition and measured after 20 mins by visible absorption spectroscopic analysis
Saccharomyces cerevisiae = test: Inhibition of Saccharomyces cerevisiae alpha-glucosidase at 0.1 mM using p-nitrophenyl glycopyranoside as substrate preincubated for 5 mins followed by substrate addition and measured after 20 mins by visible absorption spectroscopic analysis
[5] = Inhibition of human alpha-fucosidase using p-nitrophenyl glycopyranoside as substrate preincubated for 5 mins followed by substrate addition and measured after 20 mins by visible absorption spectroscopic analysis
[6] = Uncompetitive inhibition of human alpha-fucosidase using p-nitrophenyl glycopyranoside as substrate preincubated for 5 mins followed by substrate addition and measured after 20 mins by Lineweaver-Burk plot analysis
[7] = Inhibition of bovine kidney alpha-fucosidase using p-nitrophenyl glycopyranoside as substrate preincubated for 5 mins followed by substrate addition and measured after 20 mins by visible absorption spectroscopic analysis; parameters: species or system Bos taurus
[8] = molecular target: T2, Beta-galactosidase (Bos taurus) (UniProt Q58D55); test: Inhibition of bovine liver beta-galactosidase at 0.1 mM using p-nitrophenyl glycopyranoside as substrate preincubated for 5 mins followed by substrate addition and measured after 20 mins by visible absorption spectroscopic analysis
T2 sequence (whole entry): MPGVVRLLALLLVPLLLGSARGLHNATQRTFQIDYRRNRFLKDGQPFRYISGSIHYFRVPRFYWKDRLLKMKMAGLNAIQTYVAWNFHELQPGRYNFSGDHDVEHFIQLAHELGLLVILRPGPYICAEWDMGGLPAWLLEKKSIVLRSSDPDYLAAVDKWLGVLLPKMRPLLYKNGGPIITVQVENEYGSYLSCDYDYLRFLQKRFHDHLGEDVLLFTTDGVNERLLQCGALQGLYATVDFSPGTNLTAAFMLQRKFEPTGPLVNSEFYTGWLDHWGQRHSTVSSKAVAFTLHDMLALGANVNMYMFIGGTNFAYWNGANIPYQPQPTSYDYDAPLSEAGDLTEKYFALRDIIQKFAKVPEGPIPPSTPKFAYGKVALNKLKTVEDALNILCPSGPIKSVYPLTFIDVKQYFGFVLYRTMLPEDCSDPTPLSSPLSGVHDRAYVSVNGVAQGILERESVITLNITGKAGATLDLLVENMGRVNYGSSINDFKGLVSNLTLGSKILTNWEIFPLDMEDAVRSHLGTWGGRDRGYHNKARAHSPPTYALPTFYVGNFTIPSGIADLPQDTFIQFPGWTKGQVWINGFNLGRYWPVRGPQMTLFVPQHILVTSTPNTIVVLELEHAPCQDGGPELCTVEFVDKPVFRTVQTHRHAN

[9] = Competitive inhibition of human alpha-fucosidase using p-nitrophenyl glycopyranoside as substrate preincubated for 5 mins followed by substrate addition and measured after 20 mins by Lineweaver-Burk plot analysis
Oryza sativa = test: Inhibition of rice beta-glucosidase at 0.1 mM using p-nitrophenyl glycopyranoside as substrate preincubated for 5 mins followed by substrate addition and measured after 20 mins by visible absorption spectroscopic analysis
[10] = molecular target: T2, Beta-galactosidase (Bos taurus); test: Inhibition of bovine liver beta-galactosidase at 200 uM using p-nitrophenyl glycopyranoside as substrate preincubated for 5 mins followed by substrate addition and measured after 20 mins by visible absorption spectroscopic analysis relative to control
Bos taurus [11] = organism: Bos taurus; test: Inhibition of bovine kidney alpha-fucosidase at 0.120 uM using p-nitrophenyl glycopyranoside as substrate preincubated for 5 mins followed by substrate addition and measured after 20 mins by visible absorption spectroscopic analysis
Bos taurus [12] = organism: Bos taurus; test: Inhibition of bovine kidney alpha-fucosidase at 0.1 mM using p-nitrophenyl glycopyranoside as substrate preincubated for 5 mins followed by substrate addition and measured after 20 mins by visible absorption spectroscopic analysis relative to control
Beta-galactosidase [13] = molecular target: T3, Beta-galactosidase (Bos taurus, UniProt Q58D55); test: Competitive inhibition of bovine liver beta-galactosidase using p-nitrophenyl glycopyranoside as substrate preincubated for 5 mins followed by substrate addition and measured after 20 mins by Lineweaver-Burk plot analysis
T3 sequence (Q58D55 whole entry): T2 sequence (whole entry)

Homo sapiens = organism: Homo sapiens; test: Inhibition of human alpha-fucosidase at 0.1 mM using p-nitrophenyl glycopyranoside as substrate preincubated for 5 mins followed by substrate addition and measured after 20 mins by visible absorption spectroscopic analysis
Beta-galactosidase [14] = molecular target: T3, Beta-galactosidase; test: Inhibition of bovine liver beta-galactosidase using p-nitrophenyl glycopyranoside as substrate preincubated for 5 mins followed by substrate addition and measured after 20 mins by visible absorption spectroscopic analysis

Sequence of Alpha-galactosidase (Coffea arabica) (Q42656 16-378 limits assumed): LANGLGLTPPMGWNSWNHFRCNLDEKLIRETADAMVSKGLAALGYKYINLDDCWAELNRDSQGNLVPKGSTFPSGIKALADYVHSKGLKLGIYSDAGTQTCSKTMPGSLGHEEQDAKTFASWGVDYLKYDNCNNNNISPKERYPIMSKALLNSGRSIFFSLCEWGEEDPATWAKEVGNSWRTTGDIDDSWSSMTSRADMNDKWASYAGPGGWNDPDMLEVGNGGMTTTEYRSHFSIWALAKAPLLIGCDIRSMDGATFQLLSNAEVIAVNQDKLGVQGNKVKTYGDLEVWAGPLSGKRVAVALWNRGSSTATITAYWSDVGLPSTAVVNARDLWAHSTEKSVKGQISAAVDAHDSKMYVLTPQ

Row | Ki [1] [nM] | inhibition (Canavalia ensiformis) | inhibition (Cornu aspersum) | Ki [2] [nM] | inhibition [3] | inhibition [4] | inhibition (Aspergillus niger) | inhibition (Prunus dulcis) | inhibition (Saccharomyces cerevisiae) | IC50 [5] [nM] | Ki [6] [nM] | IC50 [7] [nM] | inhibition [8] | Ki [9] [nM] | inhibition (Oryza sativa) | Structure (SMILES) | further results
1 | 66 | inactive | inactive | 6.8 | inactive | inactive | inactive | inactive | inactive | 4200 | 5500 | 19 | inactive | 860 | inactive | C[C@@H]1N[C@@H](c2cn(-c3ccccc3)nn2)[C@H](O)[C@@H]1O | 
2 |  |  |  |  |  |  |  |  |  |  |  |  |  |  |  | Cc1oc([C@H]2NC[C@@H](O)[C@H]2O)cc1C(=O)NCc1cn(CCOCCOCCOCCOCCOCCn2cc(CNC(=O)c3cc([C@H]4NC[C@@H](O)[C@H]4O)oc3C)nn2)nn1 | inhibition [10]: < 50%
3 |  |  |  |  |  |  |  |  |  |  |  |  |  |  |  | C[C@@H]1N[C@@H](c2cn(CCCCCCCCCCCCn3cc([C@@H]4N[C@@H](C)[C@@H](O)[C@H]4O)nn3)nn2)[C@H](O)[C@@H]1O | inhibition (Bos taurus [11]): Active
4 |  |  |  |  |  |  |  |  |  |  |  |  |  |  |  | C[C@@H]1N[C@@H](c2cn(CCOCCOCc3cn(CCCCCCCCCCCCn4cc(COCCOCCn5cc([C@@H]6N[C@@H](C)[C@@H](O)[C@H]6O)nn5)nn4)nn3)nn2)[C@H](O)[C@@H]1O | inhibition (Bos taurus [11]): Active
5 |  |  |  |  |  |  |  |  |  |  |  |  |  |  |  | Cc1oc([C@H]2NC[C@@H](O)[C@H]2O)cc1C(=O)NCc1cn(CCOCCOCCOCCn2cc(CNC(=O)c3cc([C@H]4NC[C@@H](O)[C@H]4O)oc3C)nn2)nn1 | inhibition [10]: < 50%
6 | 4200 | inactive | inactive | 300 | inactive | inactive | inactive | inactive | inactive | 70000 | 34000 | 1000 | inactive | 18000 | inactive | C[C@@H]1N[C@@H](c2c[nH]nn2)[C@H](O)[C@@H]1O | 
7 | 240 | inactive | inactive | 15 | inactive | inactive | inactive | inactive | inactive | 6800 | 7100 | 47 | inactive | 2500 | inactive | C[C@@H]1N[C@@H](c2cn(CCCCCCn3cc([C@@H]4N[C@@H](C)[C@@H](O)[C@H]4O)nn3)nn2)[C@H](O)[C@@H]1O | 
8 | 132 | inactive | inactive | 43 | inactive | inactive | inactive | inactive | inactive | 26000 | 11100 | 120 | inactive | 4800 | inactive | C[C@@H]1N[C@@H](c2cn(CCOCCOCCOCCn3cc([C@@H]4N[C@@H](C)[C@@H](O)[C@H]4O)nn3)nn2)[C@H](O)[C@@H]1O | 
9 |  | inactive | inactive |  | inactive | inactive | inactive | inactive | inactive |  |  |  |  |  | inactive | Cc1oc([C@H]2NC[C@@H](O)[C@H]2O)cc1C(=O)NCc1cn(CCCCCCCCCCCCn2cc(CNC(=O)c3cc([C@H]4NC[C@@H](O)[C@H]4O)oc3C)nn2)nn1 | inhibition (Bos taurus [12]): 32%; inhibition [10]: 88%; Ki (Beta-galactosidase [13]): 5800 nM; inhibition (Homo sapiens): inactive; IC50 (Beta-galactosidase [14]): 9600 nM
10 |  |  |  |  |  |  |  |  |  |  |  |  |  |  |  | C[C@@H]1N[C@@H](c2cn(CCOCCOCc3cn(-c4cccc(S(=O)(=O)c5cccc(-n6cc(COCCOCCn7cc([C@@H]8N[C@@H](C)[C@@H](O)[C@H]8O)nn7)nn6)c5)c4)nn3)nn2)[C@H](O)[C@@H]1O | inhibition (Bos taurus [11]): Active
11 | 1 | inactive | inactive | 0.2 | inactive | inactive | inactive | inactive | inactive | 540 | 580 | 1.1 | inactive | 73 | inactive | C[C@@H]1N[C@@H](c2cn(-c3ccc(S(=O)(=O)c4ccc(N=[N+]=[N-])cc4)cc3)nn2)[C@H](O)[C@@H]1O | 
